Measurements taken from publication PMC7440915, “Discovery of surrogate agonists for visceral fat Treg cells that modulate metabolic indices in vivo” (eLife, 2020).
Where no end group is shown, it is not given here.

System: vTreg53 Treg cells
Experiment: Proliferation of transferred vTreg53 Treg cells in spleen after immunization
Type: in vivo, mouse
Conditions: CFA/Fat1562, 200 µg s.c., three days
From the text: Figure 4. SPs induce proliferation and activation of vTreg53 Treg cells in vitro and in vivo. (A–D) Proliferation and activation of vTreg53 Treg cells by different concentrations of SPs for 3 days in vitro (n = 3). (A) Representative flow cytometric plot of cell division. (B) Summary of cell proliferation. (C) Mean flourescence intensity (MFI) of CD44 staining in clonotype^+ Treg cells. (D) MFI of CD62L staining in clonotype^+ Treg cells. (E) Proliferation of transferred CD45.2^+ vTreg53 Treg cells in the spleen of CD45.1^+ B6 recipient mice immunized s.c. with CFA or CFA/Fat1562 at day 3 (n = 3). […]
To assess early Treg proliferation following peptide stimulation in vivo, 0.4 million Treg cells were sorted from pooled Spl and LNs of 6-8wk-old male CD45.2^+ Tg^+ Foxp3-GFP^KI/y mice by Moflo, labeled by the CellTrace Violet dye (ThermoFisher Scientific), and were i.v.-injected into 6-8wk old male B6.CD45.1^+ mice. […] Proliferation of clonotype^+ Tregs in the spleen was determined three days later. […] Six weeks later, the recipient mice were immunized with 200 µg CFA/peptides s.c. on the lower back, and one week later were boosted with 100 μg IFA/peptides i.p. After another week, clonotype^+ CD45.2^+ Treg cells from the Spl/LNs or VAT of recipient mice were analyzed by flow cytometry and double-sorted for ultra-low-input RNA-seq. […]

For TMYKNPRPMAATG [Fat1562], the “proliferation of transferred clonotype^+ Treg cells in spleen” value was “robust proliferation”.
